In patent publication US12018059B2, “Human amylin analog polypeptides and methods of use” (Intarcia Therapeutics, Inc., priority 2018, dated 2024):
≈ marks a conversion by molar mass, not a printed value. Starred links: 1 amine or outer side, 2 acyl side, 3 side chain; linkers in the order of their positions; H or OH if unused. Positions of bridges follow the written chain, without caps; N, C: chain ends. Non-standard residues stand in square brackets, D forms with d. Residues, ends and D or L forms follow the SMILES beside them. Groups on a side chain read outwards from the residue. *: point of attachment. γGlu = O=C(O)[C@H](CCC(=O)[*:2])N[*:1]; Palmitoyl = CCCCCCCCCCCCCCCC(=O)*

Experiments:
[1] = Solubility of amylin analog polypeptides (visual inspection, room temperature); assay type: physicochemical; details: Solubility
Protocol: The analog polypeptides described herein were tested for solubility in saline 20% DMSO in water (i.e., bioassay buffer) or in aqueous (DI water) at room temperature. Samples were visually inspected for clarity of the sample, any appearance of turbidity or haziness.

in vivo = assay: in vivo; parameters: species or system Sprague-Dawley rats; details: male, Sprague-Dawley, rat, iv, 0.033 mg/kg
How it was run: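 Peptide plasma levels measured by UPLC-MS/MS (C18, product-ion monitoring) after protein precipitation or WCX SPE, calibrated in K2EDTA/protease-inhibitor rat plasma. Dosing in non-fasted male Sprague-Dawley rats (n=3): 0.033 mg/kg over 1 h by IV or SC infusion, or 0.3 mg/kg SC bolus; sampling up to 48 h.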

[2] = 27-day weight loss in combination with exenatide; details: LE DIO rats
[3] = 27-day HbA1c change in combination with exenatide; details: dose 30 mcg/kg + Exenatide 10 mcg/kg, ZDF rats
[4] = Acute food intake inhibition after SC bolus injection (BioDAQ); details: Long Evans rats on 45% high fat diet
[5] = 13-day dose-response body weight loss, continuous SC infusion by osmotic mini-pump; details: 13 days, LE DIO rats

CCCCCCCCCCCCCCCC(=O)N[C@@H](CCC(=O)N[C@@H](CCC(=O)NCCCC[C@@H](NC(=O)[C@H](CCC(=O)O)NC(=O)[C@H](CC(N)=O)NC(=O)[C@H](C)NC(=O)[C@H](CC(C)C)NC(=O)[C@H](CCCNC(=N)N)NC(=O)[C@H](CCC(N)=O)NC(=O)[C@@H](NC(=O)[C@H](C)NC(=O)[C@@H]1CSSC[C@H](NC(=O)[C@@H](N)CO)C(=O)N[C@@H](CC(N)=O)C(=O)N[C@@H]([C@@H](C)O)C(=O)N[C@@H](CO)C(=O)N[C@@H]([C@@H](C)O)C(=O)N1)[C@@H](C)O)C(=O)N[C@@H](Cc1c[nH]cn1)C(=O)N[C@@H](CCCCN)C(=O)N[C@@H](CO)C(=O)N[C@@H](CO)C(=O)N[C@@H](CC(N)=O)C(=O)N[C@@H](CC(N)=O)C(=O)N[C@@H](Cc1ccccc1)C(=O)NCC(=O)N1CCC[C@H]1C(=O)N[C@H](C(=O)N[C@@H](CC(C)C)C(=O)N1CCC[C@H]1C(=O)N1CCC[C@H]1C(=O)N[C@H](C(=O)N[C@@H](CCCCN)C(=O)N[C@H](C(=O)NCC(=O)N[C@@H](CO)C(=O)N[C@@H](CCC(=O)O)C(=O)N[C@H](C(=O)N[C@@H](Cc1ccc(O)cc1)C(N)=O)[C@@H](C)O)C(C)C)[C@@H](C)O)[C@@H](C)CC)C(=O)O)C(=O)O [Compound A27] (H-SCNTSTCATQRLANE[dK]([γGlu-γGlu-Palmitoyl])HKSSNNFGPILPPTKVGSETY-NH2; disulfide 2-7; N-terminus assumed)
solubility [1]: 80.6 mg/mL (≈ 18 mM) | Vd (in vivo): 0.174 L/kg | clearance (in vivo): 0.478 mL/min/kg | half-life (in vivo): 5.16 h | DIO Combination + Exenatide 27 d weight loss, ΔΔ % weight loss ([2]; dose 3 mcg/kg + Exenatide 10 mcg/kg): 9% | DIO Combination + Exenatide 27 d weight loss, ΔΔ % weight loss ([2]; dose 10 mcg/kg + Exenatide 10 mcg/kg): 12% | DIO Combination + Exenatide 27 d weight loss, ΔΔ % weight loss ([2]; dose 30 mcg/kg + Exenatide 10 mcg/kg): 17% | ZDF Combination + Exenatide 27 d HbA1c (%), ΔΔ % HbA1c [3]: 3.3% | Acute Food Intake % Inhibition vs vehicle ([4]; 0-24 hr after acute SC dosing): 86% | Acute Food Intake % Inhibition vs vehicle ([4]; 25-48 hr after acute SC dosing): 57% | Acute Food Intake % Inhibition vs vehicle ([4]; 49-72 hr after acute SC dosing): 13% | DIO Dose Response 13 d weight loss, ED50 [5]: 0.036 mg/kg | DIO Dose Response 13 d weight loss, ΔΔ % weight loss ([5]; from baseline and vehicle control): 5%
